Measured values taken from patent WO2015077660A1, “Enzyme reactor system enabling enhanced enzymatic digestion, analyte solubility and improved mass spectrometric compatibility” (priority 2013, dated 2014).
Structures can show the parent of a compound that is named as a salt. Blank lines part the entries; values can stand above or below the molecule they belong to.

Assays:
[1] = test system: BSA; test: Screen of additives for prevention of aggregation (Table 5); format: physicochemical, bovine; settings: 12.5 mg/mL BSA, 70°C, four columns in printed order, heads missing
[2] = test system: trypsin; test: Insulin digestion in immobilized enzyme reactor, buffer screening (Table 7); format: biochemical, porcine; settings: IMER, 70°C, 60 s
[3] = test system: T1, porcine trypsin; test: Insulin digestion by trypsin in solution, buffer screening (Table 9); format: biochemical; settings: 37°C, 18 h
T1 construct: purchased

[4] = Plasma digestion with buffer/additive combinations, aggregation; format: physicochemical, beagle; settings: 10% in 50mM TBS, 100mM CaCl2; 90 minutes

Compound: CN(C)C=O [DMF, dimet ylformamide]
aggregation ([1]; 20%): Y and Υ

Compound: C[C@H](CCC(=O)O)[C@H]1CC[C@H]2[C@@H]3CC[C@@H]4C[C@H](O)CC[C@]4(C)[C@H]3C[C@H](O)[C@]12C [Deoxycholate]
aggregation ([1]; additive concentration not given): Υ

Compound: NC=O [Formamide]
Digested ([2]; 5%): 1424720
Peptide ([2]; 5%): 580956
Undigested ([2]; 5%): 3061491
Digested ([2]; 10%): 745680
Peptide ([2]; 10%): 305599
Undigested ([2]; 10%): 3827192
Digested ([2]; 15%): 375288
Peptide ([2]; 15%): 155245
Undigested ([2]; 15%): 4129486
Digested ([2]; 20%): 200621
Peptide ([2]; 20%): 82549
Undigested ([2]; 20%): 4430620
Digested ([3]; 5%): 1126069
Peptide ([3]; 5%): 500704
Undigested ([3]; 5%): 3871868
Digested ([3]; 10%): 1509456
Peptide ([3]; 10%): 693291
Undigested ([3]; 10%): 4196754
Digested ([3]; 15%): 973971
Peptide ([3]; 15%): 421130
Undigested ([3]; 15%): 4281392
Digested ([3]; 20%): 470938
Peptide ([3]; 20%): 194156
Undigested ([3]; 20%): 4620417
aggregation [4]: significant aggregation

aggregation ([1]; 0.5M, listed as Guanidine HC1, hydrochloride): N and Ν
Digested ([2]; 0.5M): 723258
Peptide ([2]; 0.5M): 309390
Undigested ([2]; 0.5M): 4114993
Digested ([2]; 1M): 423606
Peptide ([2]; 1M): 179523
Undigested ([2]; 1M): 4328875
Digested ([2]; 2M): 136773
Peptide ([2]; 2M): 56700
Undigested ([2]; 2M): 4244827
Digested ([2]; 4M): 40578
Peptide ([2]; 4M): 15000
Undigested ([2]; 4M): 4562051
Digested ([2]; 6M): 9402
Peptide ([2]; 6M): 2447
Undigested ([2]; 6M): 4396495
Compound: N=C(N)N [Gdn HC1, guanidine hydrochloride]
Digested ([3]; 0.5M): 216251
Peptide ([3]; 0.5M): 101735
Undigested ([3]; 0.5M): 5487176
Digested ([3]; 1M): 215746
Peptide ([3]; 1M): 94828
Undigested ([3]; 1M): 5229914
Digested ([3]; 2M): 184318
Peptide ([3]; 2M): 67546
Undigested ([3]; 2M): 5455780
Digested ([3]; 4M): 30954
Peptide ([3]; 4M): 11014
Undigested ([3]; 4M): 6195166
Digested ([3]; 6M): 5871
Peptide ([3]; 6M): 1647
Undigested ([3]; 6M): 5301367
